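Five concentrations, 48 hours, 96-well plates. TGI is the concentration that stops growth completely.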
Experiments:
Assay in all cases: NCI-60 cell line screen, 48 h
786-0 renal = tested on: 786-0 renal
A498 renal = tested on: A498 renal
A549 NSCLC = tested on: A549 NSCLC
ACHN renal = tested on: ACHN renal
CAKI-1 renal = tested on: CAKI-1 renal
CCRF-CEM leukemia = tested on: CCRF-CEM leukemia
DLD-1 colon = tested on: DLD-1 colon
DMS 114 small cell lung = tested on: DMS 114 small cell lung
DMS 273 small cell lung = tested on: DMS 273 small cell lung
EKVX NSCLC = tested on: EKVX NSCLC
HCC-2998 colon = tested on: HCC-2998 colon
HCT-116 colon = tested on: HCT-116 colon
HCT-15 colon = tested on: HCT-15 colon
HL-60(TB) leukemia = tested on: HL-60(TB) leukemia
HOP-18 NSCLC = tested on: HOP-18 NSCLC
HOP-62 NSCLC = tested on: HOP-62 NSCLC
HT29 colon = tested on: HT29 colon
IGROV1 ovarian = tested on: IGROV1 ovarian
K-562 leukemia = tested on: K-562 leukemia
KM12 colon = tested on: KM12 colon
KM20L2 colon = tested on: KM20L2 colon
LOX IMVI melanoma = tested on: LOX IMVI melanoma
LXFL 529 NSCLC = tested on: LXFL 529 NSCLC
M14 melanoma = tested on: M14 melanoma
M19-MEL melanoma = tested on: M19-MEL melanoma
MALME-3M melanoma = tested on: MALME-3M melanoma
MOLT-4 leukemia = tested on: MOLT-4 leukemia
NCI-H23 lung = tested on: NCI-H23 lung
NCI-H460 lung = tested on: NCI-H460 lung
NCI-H522 lung = tested on: NCI-H522 lung
OVCAR-4 ovarian = tested on: OVCAR-4 ovarian
OVCAR-5 ovarian = tested on: OVCAR-5 ovarian
OVCAR-8 ovarian = tested on: OVCAR-8 ovarian
RPMI-8226 leukemia = tested on: RPMI-8226 leukemia
RXF 393 renal = tested on: RXF 393 renal
RXF-631 renal = tested on: RXF-631 renal
SF-268 CNS = tested on: SF-268 CNS
SF-295 CNS = tested on: SF-295 CNS
SF-539 CNS = tested on: SF-539 CNS
SK-MEL-2 melanoma = tested on: SK-MEL-2 melanoma
SK-MEL-28 melanoma = tested on: SK-MEL-28 melanoma
SK-MEL-5 melanoma = tested on: SK-MEL-5 melanoma
SK-OV-3 ovarian = tested on: SK-OV-3 ovarian
SN12C renal = tested on: SN12C renal
SNB-19 CNS = tested on: SNB-19 CNS
SNB-75 CNS = tested on: SNB-75 CNS
SNB-78 CNS = tested on: SNB-78 CNS
SR leukemia = tested on: SR leukemia
SW-620 colon = tested on: SW-620 colon
TK-10 renal = tested on: TK-10 renal
U251 CNS = tested on: U251 CNS
UACC-257 melanoma = tested on: UACC-257 melanoma
UACC-62 melanoma = tested on: UACC-62 melanoma
UO-31 renal = tested on: UO-31 renal
XF 498 CNS = tested on: XF 498 CNS
COLO 205 colon = tested on: COLO 205 colon
HOP-92 NSCLC = tested on: HOP-92 NSCLC
NCI-H226 lung = tested on: NCI-H226 lung
OVCAR-3 ovarian = tested on: OVCAR-3 ovarian

CN(C)c1ccc(Cc2cc(C(C)(C)C)cc(C(C)(C)C)c2O)cc1
TGI (786-0 renal): 33.8 µM | TGI (A498 renal): 34 µM | TGI (A549 NSCLC): 73.6 µM | TGI (ACHN renal): 33.2 µM | TGI (CAKI-1 renal): 39.6 µM | TGI (CCRF-CEM leukemia): > 100 µM | TGI (DLD-1 colon): > 100 µM | TGI (DMS 114 small cell lung): 28.6 µM | TGI (DMS 273 small cell lung): 34 µM | TGI (EKVX NSCLC): 46.4 µM | TGI (HCC-2998 colon): 35.5 µM | TGI (HCT-116 colon): 26 µM | TGI (HCT-15 colon): 34.3 µM | TGI (HL-60(TB) leukemia): > 100 µM | TGI (HOP-18 NSCLC): 80.5 µM | TGI (HOP-62 NSCLC): 37.2 µM | TGI (HT29 colon): 31.1 µM | TGI (IGROV1 ovarian): 47.8 µM | TGI (K-562 leukemia): 26.2 µM | TGI (KM12 colon): 24.6 µM | TGI (KM20L2 colon): 40.4 µM | TGI (LOX IMVI melanoma): 22.3 µM | TGI (LXFL 529 NSCLC): 39.4 µM | TGI (M14 melanoma): 41.7 µM | TGI (M19-MEL melanoma): 49.4 µM | TGI (MALME-3M melanoma): 53 µM | TGI (MOLT-4 leukemia): 31.5 µM | TGI (NCI-H23 lung): 33.3 µM | TGI (NCI-H460 lung): 37.5 µM | TGI (NCI-H522 lung): 37 µM | TGI (OVCAR-4 ovarian): 82.7 µM | TGI (OVCAR-5 ovarian): 18.5 µM | TGI (OVCAR-8 ovarian): 42 µM | TGI (RPMI-8226 leukemia): 27.8 µM | TGI (RXF 393 renal): 30.8 µM | TGI (RXF-631 renal): 36.3 µM | TGI (SF-268 CNS): 35.6 µM | TGI (SF-295 CNS): 35.6 µM | TGI (SF-539 CNS): 43.1 µM | TGI (SK-MEL-2 melanoma): 20.1 µM | TGI (SK-MEL-28 melanoma): 42.6 µM | TGI (SK-MEL-5 melanoma): 29.5 µM | TGI (SK-OV-3 ovarian): 74.5 µM | TGI (SN12C renal): 30.2 µM | TGI (SNB-19 CNS): 47.1 µM | TGI (SNB-75 CNS): 79.6 µM | TGI (SNB-78 CNS): 37.4 µM | TGI (SR leukemia): 33.8 µM | TGI (SW-620 colon): 30.6 µM | TGI (TK-10 renal): 27.1 µM | TGI (U251 CNS): 30.1 µM | TGI (UACC-257 melanoma): 34.9 µM | TGI (UACC-62 melanoma): 30.2 µM | TGI (UO-31 renal): 32.7 µM | TGI (XF 498 CNS): 36.5 µM

O=S(=O)(N/N=C/c1c(Cl)cccc1Cl)c1ccccc1
TGI (A498 renal): > 100 µM | TGI (A549 NSCLC): > 100 µM | TGI (CCRF-CEM leukemia): > 100 µM | TGI (COLO 205 colon): > 100 µM | TGI (DLD-1 colon): > 100 µM | TGI (DMS 114 small cell lung): > 100 µM | TGI (DMS 273 small cell lung): > 100 µM | TGI (EKVX NSCLC): > 100 µM | TGI (HCC-2998 colon): > 100 µM | TGI (HCT-116 colon): > 100 µM | TGI (HCT-15 colon): > 100 µM | TGI (HL-60(TB) leukemia): 70.8 µM | TGI (HOP-18 NSCLC): > 100 µM | TGI (HOP-62 NSCLC): > 100 µM | TGI (HOP-92 NSCLC): > 100 µM | TGI (HT29 colon): > 100 µM | TGI (IGROV1 ovarian): > 100 µM | TGI (K-562 leukemia): > 100 µM | TGI (KM12 colon): > 100 µM | TGI (KM20L2 colon): > 100 µM | TGI (LOX IMVI melanoma): > 100 µM | TGI (LXFL 529 NSCLC): > 100 µM | TGI (M14 melanoma): > 100 µM | TGI (M19-MEL melanoma): > 100 µM | TGI (MALME-3M melanoma): > 100 µM | TGI (MOLT-4 leukemia): > 100 µM | TGI (NCI-H226 lung): > 100 µM | TGI (NCI-H23 lung): > 100 µM | TGI (NCI-H460 lung): > 100 µM | TGI (OVCAR-3 ovarian): > 100 µM | TGI (OVCAR-4 ovarian): > 100 µM | TGI (OVCAR-5 ovarian): > 100 µM | TGI (OVCAR-8 ovarian): > 100 µM | TGI (RPMI-8226 leukemia): > 100 µM | TGI (RXF 393 renal): > 100 µM | TGI (RXF-631 renal): > 100 µM | TGI (SF-268 CNS): > 100 µM | TGI (SF-295 CNS): > 100 µM | TGI (SF-539 CNS): > 100 µM | TGI (SK-MEL-2 melanoma): > 100 µM | TGI (SK-MEL-28 melanoma): > 100 µM | TGI (SK-MEL-5 melanoma): > 100 µM | TGI (SK-OV-3 ovarian): > 100 µM | TGI (SN12C renal): > 100 µM | TGI (SNB-75 CNS): > 100 µM | TGI (SNB-78 CNS): > 100 µM | TGI (SR leukemia): > 100 µM | TGI (SW-620 colon): > 100 µM | TGI (TK-10 renal): > 100 µM | TGI (U251 CNS): > 100 µM | TGI (UACC-257 melanoma): > 100 µM | TGI (UACC-62 melanoma): > 100 µM | TGI (UO-31 renal): > 100 µM | TGI (XF 498 CNS): > 100 µM

COc1ccc(O)cc1C=O
TGI (786-0 renal): > 100 µM | TGI (A498 renal): > 100 µM | TGI (A549 NSCLC): > 100 µM | TGI (ACHN renal): > 100 µM | TGI (CCRF-CEM leukemia): > 100 µM | TGI (COLO 205 colon): > 100 µM | TGI (DLD-1 colon): > 100 µM | TGI (DMS 114 small cell lung): > 100 µM | TGI (DMS 273 small cell lung): > 100 µM | TGI (EKVX NSCLC): > 100 µM | TGI (HCC-2998 colon): > 100 µM | TGI (HCT-116 colon): > 100 µM | TGI (HCT-15 colon): > 100 µM | TGI (HL-60(TB) leukemia): 54.9 µM | TGI (HOP-18 NSCLC): > 100 µM | TGI (HOP-62 NSCLC): > 100 µM | TGI (HOP-92 NSCLC): > 100 µM | TGI (HT29 colon): > 100 µM | TGI (IGROV1 ovarian): > 100 µM | TGI (K-562 leukemia): > 100 µM | TGI (KM12 colon): > 100 µM | TGI (KM20L2 colon): > 100 µM | TGI (LOX IMVI melanoma): > 100 µM | TGI (LXFL 529 NSCLC): > 100 µM | TGI (M14 melanoma): > 100 µM | TGI (M19-MEL melanoma): > 100 µM | TGI (MALME-3M melanoma): > 100 µM | TGI (MOLT-4 leukemia): > 100 µM | TGI (NCI-H23 lung): > 100 µM | TGI (NCI-H460 lung): > 100 µM | TGI (OVCAR-3 ovarian): > 100 µM | TGI (OVCAR-4 ovarian): > 100 µM | TGI (OVCAR-5 ovarian): > 100 µM | TGI (OVCAR-8 ovarian): > 100 µM | TGI (RPMI-8226 leukemia): > 100 µM | TGI (RXF 393 renal): > 100 µM | TGI (RXF-631 renal): > 100 µM | TGI (SF-268 CNS): > 100 µM | TGI (SF-295 CNS): > 100 µM | TGI (SF-539 CNS): > 100 µM | TGI (SK-MEL-28 melanoma): > 100 µM | TGI (SK-MEL-5 melanoma): > 100 µM | TGI (SK-OV-3 ovarian): > 100 µM | TGI (SN12C renal): > 100 µM | TGI (SNB-19 CNS): > 100 µM | TGI (SNB-78 CNS): > 100 µM | TGI (SR leukemia): 92.3 µM | TGI (SW-620 colon): > 100 µM | TGI (TK-10 renal): > 100 µM | TGI (U251 CNS): > 100 µM | TGI (UACC-257 melanoma): > 100 µM | TGI (UACC-62 melanoma): > 100 µM | TGI (UO-31 renal): > 100 µM | TGI (XF 498 CNS): > 100 µM
